Experimental findings from patent publication US8569289B2, “Fumarate salt of 4-bromophenyl 1,4-diazabicyclo[3.2.2]nonane-4-carboxylate, crystalline forms thereof, preparation thereof and therapeutic use thereof” (Sanofi, priority 2008, dated 2013) are described below.

The structures appear in SMILES notation.

Series [1] is classed as physicochemical. From the text: In contrast, the fumarate salt of 4-bromophenyl 1,4-diazabicyclo[3.2.2]nonane-4-carboxylate crystallizes in two nonhygroscopic polymorphic forms (forms I and II). […] This property of the two polymorphic forms of the fumarate salt of 4-bromophenyl 1,4-diazabicyclo[3.2.2]nonane-4-carboxylate is an advantage in comparison with the hydrochloride salt of 4-bromophenyl 1,4-diazabicyclo[3.2.2]nonane-4-carboxylate.

The nature of series [2]: Test of thermal stability in the solid state - appearance. The series is classed as physicochemical. Here is the method:
Test of thermal stability in the solid state
(§1) The base and the fumarate salt of the compound of formula (I) are analyzed after 1, 7 and 14 days of storage at: • 80° C.; • 80° C. and under 80% relative humidity (RH). Appearance
In contrast, the appearance of the fumarate salt of the compound of formula (I) remains unchanged.

Series [3] can be described thus: Thermal stability in the solid state - quantitative determination of nondecomposed product and impurities by HPLC. Particulars: for Sum % imp. quantified (% surf.): HPLC UV 220 nm; for Non-decomposed base / product (%): HPLC, % (w/w) of nondecomposed base. The format is physicochemical. Here is the method:
as §1
Quantitative Determination of the Nondecomposed Product and Percentage of Impurities
Chromatographic Conditions
Column: Inertsil ODS 3 150×4.6 mm, 5 μm, maintained at 25° C.
Buffer pH 4.5: 0.01M KH2PO4, 0.5 g/l sodium heptanesulfonate pH adjusted to 4.5 with 1M KOH
Phase A: 90 V buffer pH 4.5
• 10 V acetonitrile Phase B: 20 V buffer pH 4.5 • 80 V acetonitrile Gradient: from 100% of phase A to 80% of phase B in 40 min Flow rate: 1.0 ml/min Detection: UV, λ=220 nm (optical path: 1 cm) Solutions injected: 0.2 mg (base or salt)/ml solutions in a mixture of 50 volumes of water and 50 volumes of acetonitrile. Comment: for the quantitative determinations, the results obtained are expressed in % (w/w) of nondecomposed base (by calibrating with nondecomposed base or salt controls stored at ambient temperature).
Comment: the sum of the impurities quantified may be less after storing at 80° C. under 80% relative humidity because impurities may decompose to give products which cannot be detected by UV or which are not separated by the analytical conditions.

A short description of series [4]: Instantaneous solubility tests. The series is classed as physicochemical. Here is the method: The instantaneous solubilities of the base and of the fumarate salt of the compound of formula (I) were determined in the following media: • water; • buffer pH 1.2: 0.01M KH2PO4, pH adjusted with orthophosphoric acid; • buffer pH 7.2: 0.2M KH2PO4, pH adjusted with KOH; • buffer pH 9.0: 0.04M Na2B4O7.10H2O, pH adjusted with boric acid; • dimethyl sulfoxide (DMSO).
Determination of the instantaneous solubilities: successive volumes of the medium are added to the test specimen until the compound has dissolved. Stirring is carried out with a vortex mixer at ambient temperature.
Information on the corresponding classification according to the European Pharmacopoeia is also given therein.

The mark [5] stands for this setting: solid state, 80° C./80% RH, 1 d.
Setting [6] is: solid state, 80° C./80% RH, 7 d.
Where [7] appears, read: solid state, 80° C./80% RH, 14 d.
Where [8] appears, read: buffer pH 1.2, ambient temperature.
The mark [9] stands for this setting: buffer pH 7.2, ambient temperature.
The mark [10] stands for this setting: buffer pH 9.0, ambient temperature.

Take `Cl.O=C(Oc1ccc(Br)cc1)N1CCN2CCC1CC2` [hydrochloride, hydrochloride salt of 4-bromophenyl 1,4-diazabicyclo[3.2.2]nonane-4-carboxylate]: in series [1], the “Forms shown by the water sorption/desorption isotherm” value is “present in a hemihydrate form and two anhydrous forms”. The “Stability of the water stoichiometry” value in series [1] (under the effect of temperature or when flushing with nitrogen) is recorded as “has a tendency to lose its water stoichiometry”.

`O=C(O)/C=C/C(=O)O.O=C(Oc1ccc(Br)cc1)N1CCN2CCC1CC2` [form I, fumarate salt of 4-bromophenyl 1,4-diazabicyclo[3.2.2]nonane-4-carboxylate]: the “Hygroscopicity of the polymorphic form” value in series [1] is given as “nonhygroscopic”. The “Impact of water on the crystalline form” value in series [1] (water in the vapor or liquid form) is listed as “no impact on the crystalline form”.

`O=C(O)/C=C/C(=O)O.O=C(Oc1ccc(Br)cc1)N1CCN2CCC1CC2` [Fumarate, fumarate salt of 4-bromophenyl 1,4-diazabicyclo[3.2.2]nonane-4-carboxylate]: the Appearance result in series [2] (Initial appearance) was “White powder”; in series [2] (solid state, 80° C., 1 d), “unchanged”; in series [2] (solid state, 80° C., 7 d) it was “unchanged”; in series [2] (solid state, 80° C., 14 d) it was “unchanged”; in series [2] (setting [5]), “unchanged”; in series [2] (setting [6]) it was “unchanged”. For the same compound, in series [2] (setting [7]), the Appearance entry is “unchanged”. The “Sum % imp. quantified (% surf.)” value in series [3] (Initial) amounted to 0.32 % surf; in series [3] (solid state, 80° C., 7 d), 0.60 % surf; in series [3] (solid state, 80° C., 14 d), 0.53 % surf; in series [3] (setting [6]), 0.74 % surf; in series [3] (setting [7]) it was 0.83 % surf. The “Non-decomposed base / product (%)” value in series [3] (solid state, 80° C., 7 d) is 99.6%; in series [3] (solid state, 80° C., 14 d) it was 100%; in series [3] (setting [6]), 99.7%; in series [3] (setting [7]), 100%. Further, the “Solubility classification according to the European Pharmacopoeia” value in series [4] (DMSO) was “Freely soluble”; in series [4] (Water), “Sparingly soluble”; in series [4] (buffer pH 1.2), “Sparingly soluble”; in series [4] (buffer pH 7.2) it was “Soluble”; in series [4] (buffer pH 9.0), “Soluble”. The Instantaneous solubility was ~140 g of product/l in series [4] (DMSO, ambient temperature); ~27 g of product/l in series [4] (Water, ambient temperature); ~16 g of product/l in series [4] (setting [8]); ~75 g of product/l in series [4] (setting [9]); ~68 g of product/l in series [4] (setting [10]).

Regarding `O=C(Oc1ccc(Br)cc1)N1CCN2CCC1CC2` [Base, 4-Bromophenyl 1,4-diazabicyclo[3.2.2]nonane-4-carboxylate], the Appearance entry is “Virtually white” in series [2] (Initial appearance); “Pale yellow” in series [2] (solid state, 80° C., 1 d); “Pale yellow” in series [2] (solid state, 80° C., 7 d); “Pale yellow” in series [2] (solid state, 80° C., 14 d); “Yellow-brown” in series [2] (setting [5]); “Brown” in series [2] (setting [6]). Further, in series [2] (setting [7]), the Appearance entry is recorded as “Brown”. In addition, the “Sum % imp. quantified (% surf.)” value in series [3] (Initial) is given as 4.02 % surf; in series [3] (solid state, 80° C., 7 d) it was 3.57 % surf; in series [3] (solid state, 80° C., 14 d), 3.14 % surf; in series [3] (setting [6]) it was 4.37 % surf; in series [3] (setting [7]), 4.53 % surf. The “Non-decomposed base / product (%)” value in series [3] (solid state, 80° C., 7 d) is on record as 100%; in series [3] (solid state, 80° C., 14 d), 99.9%; in series [3] (setting [6]), 98.7%; in series [3] (setting [7]), 98.3%. Moreover, the “Solubility classification according to the European Pharmacopoeia” value in series [4] (DMSO) was “Soluble”; in series [4] (Water) it was “Slightly soluble”; in series [4] (buffer pH 1.2), “Freely soluble”; in series [4] (buffer pH 7.2), “Slightly soluble”; in series [4] (buffer pH 9.0), “Slightly soluble”. The Instantaneous solubility is reported as ~75 g of product/l in series [4] (DMSO, ambient temperature); <2 g of product/l in series [4] (Water, ambient temperature); 140 g of product/l in series [4] (setting [8]); <2 g of product/l in series [4] (setting [9]); <2 g of product/l in series [4] (setting [10]).
